Laboratory results reported in BindingDB's records for doi:10.1021/acs.jnatprod.9b01022 (Taipei Chang Gung Memorial Hospital, 2020).

What was measured:
[1] = Reversal of ABCG2 (unknown origin)-mediated multidrug resistance in human S1-M1-80 cells assessed as effect on topotecan-induced cytotoxicity by measuring topotecan IC50 at 3 uM after 72 hrs by MTT assay (Rvb = 10.14 +/- 2.820 uM)
[2] = Reversal of ABCG2 (unknown origin)-mediated multidrug resistance in human H460-MX20 cells assessed as effect on topotecan-induced cytotoxicity by measuring topotecan IC50 at 2 uM after 72 hrs by MTT assay (Rvb = 1319.20 +/- 356.14 nM)
[3] = Reversal of ABCG2 (unknown origin)-mediated multidrug resistance in human H460-MX20 cells assessed as effect on mitoxantrone-induced cytotoxicity by measuring mitoxantrone IC50 at 0.5 uM after 72 hrs by MTT assay (Rvb = 1160.60 +/- 365.72 nM)
[4] = Reversal of ABCG2 (unknown origin)-mediated multidrug resistance in human H460-MX20 cells assessed as effect on topotecan-induced cytotoxicity by measuring topotecan IC50 at 0.5 uM after 72 hrs by MTT assay (Rvb = 1319.20 +/- 356.14 nM)
[5] = Reversal of human ABCG2-mediated multidrug resistance in HEK293/R482 cells assessed as effect on topotecan-induced cytotoxicity by measuring topotecan IC50 at 1 uM after 72 hrs by CCK8 assay (Rvb = 201.31 +/- 25.89 nM)
[6] = Reversal of human ABCG2-mediated multidrug resistance in HEK293/R482 cells assessed as effect on topotecan-induced cytotoxicity by measuring topotecan IC50 at 0.5 uM after 72 hrs by CCK8 assay (Rvb = 201.31 +/- 25.89 nM)
[7] = Reversal of ABCG2 (unknown origin)-mediated multidrug resistance in human H460-MX20 cells assessed as effect on mitoxantrone-induced cytotoxicity by measuring mitoxantrone IC50 at 1 uM after 72 hrs by MTT assay (Rvb = 1160.60 +/- 365.72 nM)
[8] = Reversal of ABCG2 (unknown origin)-mediated multidrug resistance in human S1-M1-80 cells assessed as effect on mitoxantrone-induced cytotoxicity by measuring mitoxantrone IC50 at 0.5 uM after 72 hrs by MTT assay (Rvb = 73.62 +/- 7.20 uM)
[9] = Reversal of ABCG2 (unknown origin)-mediated multidrug resistance in human S1-M1-80 cells assessed as effect on mitoxantrone-induced cytotoxicity by measuring mitoxantrone IC50 at 1 uM after 72 hrs by MTT assay (Rvb = 73.62 +/- 7.20 uM)
[10] = Reversal of human ABCG2-mediated multidrug resistance in HEK293/R482 cells assessed as effect on topotecan-induced cytotoxicity by measuring topotecan IC50 at 2 uM after 72 hrs by CCK8 assay (Rvb = 201.31 +/- 25.89 nM)
[11] = Reversal of human ABCG2-mediated multidrug resistance in HEK293/R482 cells assessed as effect on topotecan-induced cytotoxicity by measuring topotecan IC50 at 3 uM after 72 hrs by CCK8 assay (Rvb = 201.31 +/- 25.89 nM)
[12] = Reversal of human ABCG2-mediated multidrug resistance in HEK293/R482 cells assessed as effect on mitoxantrone-induced cytotoxicity by measuring mitoxantrone IC50 at 1 uM after 72 hrs by CCK8 assay (Rvb = 50.66 +/- 6.88 nM)
[13] = Reversal of ABCG2 (unknown origin)-mediated multidrug resistance in human S1-M1-80 cells assessed as effect on topotecan-induced cytotoxicity by measuring topotecan IC50 at 2 uM after 72 hrs by MTT assay (Rvb = 10.14 +/- 2.820 uM)
[14] = Reversal of human ABCC1-mediated multidrug resistance in HEK293/MRP1 cells assessed as effect on etoposide-induced cytotoxicity by measuring etoposide IC50 at 0.5 uM after 72 hrs by CCK8 assay (Rvb = 63.34 +/- 7.92 uM)
[15] = Reversal of ABCG2 (unknown origin)-mediated multidrug resistance in human H460-MX20 cells assessed as effect on topotecan-induced cytotoxicity by measuring topotecan IC50 at 3 uM after 72 hrs by MTT assay (Rvb = 1319.20 +/- 356.14 nM)
[16] = Reversal of human ABCG2-mediated multidrug resistance in HEK293/R482 cells assessed as effect on mitoxantrone-induced cytotoxicity by measuring mitoxantrone IC50 at 3 uM after 72 hrs by CCK8 assay (Rvb = 50.66 +/- 6.88 nM)
[17] = Reversal of human ABCC1-mediated multidrug resistance in HEK293/MRP1 cells assessed as effect on etoposide-induced cytotoxicity by measuring etoposide IC50 at 2 uM after 72 hrs by CCK8 assay (Rvb = 63.34 +/- 7.92 uM)
[18] = Reversal of ABCG2 (unknown origin)-mediated multidrug resistance in human H460-MX20 cells assessed as effect on mitoxantrone-induced cytotoxicity by measuring mitoxantrone IC50 at 3 uM after 72 hrs by MTT assay (Rvb = 1160.60 +/- 365.72 nM)
[19] = Reversal of human ABCC1-mediated multidrug resistance in HEK293/MRP1 cells assessed as effect on etoposide-induced cytotoxicity by measuring etoposide IC50 at 3 uM after 72 hrs by CCK8 assay (Rvb = 63.34 +/- 7.92 uM)
[20] = Reversal of ABCG2 (unknown origin)-mediated multidrug resistance in human S1-M1-80 cells assessed as effect on topotecan-induced cytotoxicity by measuring topotecan IC50 at 1 uM after 72 hrs by MTT assay (Rvb = 10.14 +/- 2.820 uM)
[21] = Reversal of ABCG2 (unknown origin)-mediated multidrug resistance in human H460-MX20 cells assessed as effect on topotecan-induced cytotoxicity by measuring topotecan IC50 at 1 uM after 72 hrs by MTT assay (Rvb = 1319.20 +/- 356.14 nM)
[22] = Reversal of ABCG2 (unknown origin)-mediated multidrug resistance in human H460-MX20 cells assessed as effect on mitoxantrone-induced cytotoxicity by measuring mitoxantrone IC50 at 2 uM after 72 hrs by MTT assay (Rvb = 1160.60 +/- 365.72 nM)
[23] = Reversal of ABCG2 (unknown origin)-mediated multidrug resistance in human S1-M1-80 cells assessed as effect on topotecan-induced cytotoxicity by measuring topotecan IC50 at 0.5 uM after 72 hrs by MTT assay (Rvb = 10.14 +/- 2.820 uM)
[24] = Reversal of human ABCG2-mediated multidrug resistance in HEK293/R482 cells assessed as effect on mitoxantrone-induced cytotoxicity by measuring mitoxantrone IC50 at 0.5 uM after 72 hrs by CCK8 assay (Rvb = 50.66 +/- 6.88 nM)
[25] = Reversal of human ABCC1-mediated multidrug resistance in HEK293/MRP1 cells assessed as effect on etoposide-induced cytotoxicity by measuring etoposide IC50 at 1 uM after 72 hrs by CCK8 assay (Rvb = 63.34 +/- 7.92 uM)
[26] = Reversal of ABCG2 (unknown origin)-mediated multidrug resistance in human S1-M1-80 cells assessed as effect on mitoxantrone-induced cytotoxicity by measuring mitoxantrone IC50 at 2 uM after 72 hrs by MTT assay (Rvb = 73.62 +/- 7.20 uM)
[27] = Reversal of human ABCG2-mediated multidrug resistance in HEK293/R482 cells assessed as effect on mitoxantrone-induced cytotoxicity by measuring mitoxantrone IC50 at 2 uM after 72 hrs by CCK8 assay (Rvb = 50.66 +/- 6.88 nM)
[28] = Reversal of ABCG2 (unknown origin)-mediated multidrug resistance in human S1-M1-80 cells assessed as effect on mitoxantrone-induced cytotoxicity by measuring mitoxantrone IC50 at 3 uM after 72 hrs by MTT assay (Rvb = 73.62 +/- 7.20 uM)

Q: With `C=CC(C)(C)c1cc(/C=C/C(=O)c2ccc(O)cc2)c(OC)cc1O` [3-(4-hydroxy-2-methoxy-5-(2-methylbut-3-en-2-yl)phenyl)-1-(4-hydroxyphenyl)prop-2-en-1-one] as the compound, how does the IC50 [1] read?
A: The IC50 was 310 nM.

Q: And the IC50 [2]?
A: The IC50 was 148 nM.

Q: What about the IC50 [3] of the same compound?
A: Its IC50 is 442 nM.

Q: And the IC50 [4]?
A: The IC50 was 367 nM.

Q: What about the IC50 [5] of the same compound?
A: The IC50 was 51 nM.

Q: What about the IC50 [6] of the same compound?
A: The IC50 was 90 nM.

Q: And the IC50 [7]?
A: Its IC50 is 86 nM.

Q: What about the IC50 [8] of the same compound?
A: Its IC50 is 39500 nM.

Q: What about the IC50 [9] of the same compound?
A: Its IC50 is 6800 nM.

Q: And the IC50 [10]?
A: The IC50 was 44 nM.

Q: What about the IC50 [11] of the same compound?
A: The IC50 was 42 nM.

Q: And the IC50 [12]?
A: Its IC50 is 7.1 nM.

Q: And the IC50 [13]?
A: The IC50 was 410 nM.

Q: What about the IC50 [14] of the same compound?
A: The IC50 was 53600 nM.

Q: What about the IC50 [15] of the same compound?
A: The IC50 was 130 nM.

Q: What about the IC50 [16] of the same compound?
A: Its IC50 is 6.2 nM.

Q: What about the IC50 [17] of the same compound?
A: Its IC50 is 66600 nM.

Q: What about the IC50 [18] of the same compound?
A: Its IC50 is 70 nM.

Q: What about the IC50 [19] of the same compound?
A: The IC50 was 56500 nM.

Q: And the IC50 [20]?
A: The IC50 was 610 nM.

Q: And the IC50 [21]?
A: The IC50 was 144 nM.

Q: What about the IC50 [22] of the same compound?
A: The IC50 was 75 nM.

Q: And the IC50 [23]?
A: Its IC50 is 1030 nM.

Q: And the IC50 [24]?
A: Its IC50 is 19 nM.

Q: What about the IC50 [25] of the same compound?
A: Its IC50 is 49300 nM.

Q: And the IC50 [26]?
A: The IC50 was 2630 nM.

Q: What about the IC50 [27] of the same compound?
A: Its IC50 is 7.8 nM.

Q: What about the IC50 [28] of the same compound?
A: The IC50 was 1530 nM.
